Key:
Assay in all cases: relative viability (nuclei count vs DMSO), 5 days (fraction); higher = more cells survive
UMC-11 = system: UMC-11
How it was run: (§1)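 Nuclei were stained with Hoechst during a one-step fixation (final 0.05% Triton X-100, 1% formaldehyde, 1 ug/ml Hoechst) carried out 5 days after dosing, then counted on 4× images. The cells, lung cancer lines in 1536-well plates, had been dosed by pin tool the day after seeding with one drug alone or a fixed anchor-drug dose plus five library-drug doses (not always all listed) in √10 steps. Relative viability is the nuclei count in treated wells divided by that in vehicle wells, and each value is the median of duplicate plates.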

SK-LU-1 = system: SK-LU-1
How it was run: as §1

NCI-H460 = system: NCI-H460
How it was run: as §1

NCI-H1944 = system: NCI-H1944
How it was run: as §1

NCI-H1666 = system: NCI-H1666
How it was run: as §1

HCC-78 = system: HCC-78
How it was run: as §1

NCI-H1792 = system: NCI-H1792
How it was run: as §1

HCC-366 = system: HCC-366
How it was run: as §1

LC-2-ad = system: LC-2-ad
How it was run: as §1

HOP-62 = system: HOP-62
How it was run: as §1

A-427 = system: A-427
How it was run: as §1

NCI-H358 = system: NCI-H358
How it was run: as §1

EPLC-272H = system: EPLC-272H
How it was run: as §1

LU99A = system: LU99A
How it was run: as §1

LXF-289 = system: LXF-289
How it was run: as §1

NCI-H2170 = system: NCI-H2170
How it was run: as §1

NCI-H2009 = system: NCI-H2009
How it was run: as §1

COR-L 105 = system: COR-L 105
How it was run: as §1

NCI-H1915 = system: NCI-H1915
How it was run: as §1

NCI-H2085 = system: NCI-H2085
How it was run: as §1

O=c1cc(N2CCOCC2)oc2c(-c3cccc4c3sc3ccccc34)cccc12 + C[C@@H](Oc1cc(-c2cnn(C3CCNCC3)c2)cnc1N)c1c(Cl)ccc(F)c1Cl [Crizotinib] (partner 1 µM)
relative viability (UMC-11; first compound 0.01 µM): 0.69
relative viability (UMC-11; first compound 0.03162 µM): 0.648
relative viability (UMC-11; first compound 0.1 µM): 0.592
relative viability (UMC-11; first compound 0.3162 µM): 0.631
relative viability (UMC-11; first compound 1 µM): 0.565
relative viability (SK-LU-1; first compound 0.03162 µM): 0.897
relative viability (SK-LU-1; first compound 0.1 µM): 0.828
relative viability (SK-LU-1; first compound 0.3162 µM): 0.993
relative viability (SK-LU-1; first compound 1 µM): 0.877
relative viability (NCI-H460; first compound 0.01 µM): 0.822
relative viability (NCI-H460; first compound 0.03162 µM): 0.99
relative viability (NCI-H460; first compound 0.1 µM): 0.988
relative viability (NCI-H460; first compound 0.3162 µM): 1.1
relative viability (NCI-H460; first compound 1 µM): 0.922
relative viability (NCI-H1944; first compound 0.01 µM): 1.05
relative viability (NCI-H1944; first compound 0.03162 µM): 1.03
relative viability (NCI-H1944; first compound 0.1 µM): 1.18
relative viability (NCI-H1944; first compound 0.3162 µM): 1.03
relative viability (NCI-H1944; first compound 1 µM): 1.04
relative viability (NCI-H1666; first compound 0.01 µM): 0.971
relative viability (NCI-H1666; first compound 0.03162 µM): 1.05
relative viability (NCI-H1666; first compound 0.1 µM): 0.905
relative viability (NCI-H1666; first compound 0.3162 µM): 0.941
relative viability (NCI-H1666; first compound 1 µM): 0.812
relative viability (HCC-78; first compound 0.01 µM): 0.342
relative viability (HCC-78; first compound 0.03162 µM): 0.33
relative viability (HCC-78; first compound 0.1 µM): 0.331
relative viability (HCC-78; first compound 0.3162 µM): 0.326
relative viability (HCC-78; first compound 1 µM): 0.353
relative viability (NCI-H1792; first compound 0.01 µM): 0.967
relative viability (NCI-H1792; first compound 0.03162 µM): 0.923
relative viability (NCI-H1792; first compound 0.1 µM): 0.741
relative viability (NCI-H1792; first compound 0.3162 µM): 0.939
relative viability (NCI-H1792; first compound 1 µM): 0.95
relative viability (HCC-366; first compound 0.01 µM): 0.457
relative viability (HCC-366; first compound 0.03162 µM): 0.506
relative viability (HCC-366; first compound 0.1 µM): 0.66
relative viability (HCC-366; first compound 0.3162 µM): 0.471
relative viability (HCC-366; first compound 1 µM): 0.598
relative viability (LC-2-ad; first compound 0.01 µM): 0.492
relative viability (LC-2-ad; first compound 0.03162 µM): 0.427
relative viability (LC-2-ad; first compound 0.1 µM): 0.487
relative viability (LC-2-ad; first compound 0.3162 µM): 0.397
relative viability (LC-2-ad; first compound 1 µM): 0.537
relative viability (HOP-62; first compound 0.01 µM): 1.06
relative viability (HOP-62; first compound 0.03162 µM): 0.931
relative viability (HOP-62; first compound 0.1 µM): 0.931
relative viability (HOP-62; first compound 0.3162 µM): 0.945
relative viability (HOP-62; first compound 1 µM): 1.04
relative viability (A-427; first compound 0.01 µM): 0.983
relative viability (A-427; first compound 0.03162 µM): 0.851
relative viability (A-427; first compound 0.1 µM): 0.807
relative viability (A-427; first compound 0.3162 µM): 0.787
relative viability (A-427; first compound 1 µM): 0.925
relative viability (NCI-H358; first compound 0.01 µM): 0.498
relative viability (NCI-H358; first compound 0.03162 µM): 0.546
relative viability (NCI-H358; first compound 0.1 µM): 0.794
relative viability (NCI-H358; first compound 0.3162 µM): 0.658
relative viability (NCI-H358; first compound 1 µM): 0.535
relative viability (EPLC-272H; first compound 0.01 µM): 0.909
relative viability (EPLC-272H; first compound 0.03162 µM): 1.07
relative viability (EPLC-272H; first compound 0.3162 µM): 0.937
relative viability (EPLC-272H; first compound 1 µM): 0.896
relative viability (LU99A; first compound 0.01 µM): 0.647
relative viability (LU99A; first compound 0.03162 µM): 0.574
relative viability (LU99A; first compound 0.1 µM): 0.577
relative viability (LU99A; first compound 0.3162 µM): 0.535
relative viability (LU99A; first compound 1 µM): 0.573
relative viability (LXF-289; first compound 0.01 µM): 0.814
relative viability (LXF-289; first compound 0.03162 µM): 0.806
relative viability (LXF-289; first compound 0.1 µM): 0.794
relative viability (LXF-289; first compound 0.3162 µM): 0.789
relative viability (LXF-289; first compound 1 µM): 0.755
relative viability (NCI-H2170; first compound 0.01 µM): 1.24
relative viability (NCI-H2170; first compound 0.03162 µM): 1.17
relative viability (NCI-H2170; first compound 0.1 µM): 1.24
relative viability (NCI-H2170; first compound 0.3162 µM): 1.12
relative viability (NCI-H2170; first compound 1 µM): 1.17
relative viability (NCI-H2009; first compound 0.01 µM): 1.03
relative viability (NCI-H2009; first compound 0.03162 µM): 0.921
relative viability (NCI-H2009; first compound 0.1 µM): 1.02
relative viability (NCI-H2009; first compound 0.3162 µM): 0.995
relative viability (NCI-H2009; first compound 1 µM): 0.935
relative viability (COR-L 105; first compound 0.01 µM): 0.655
relative viability (COR-L 105; first compound 0.03162 µM): 0.649
relative viability (COR-L 105; first compound 0.1 µM): 0.856
relative viability (COR-L 105; first compound 0.3162 µM): 0.724
relative viability (COR-L 105; first compound 1 µM): 0.589
relative viability (NCI-H1915; first compound 0.01 µM): 0.875
relative viability (NCI-H1915; first compound 0.03162 µM): 0.879
relative viability (NCI-H1915; first compound 0.1 µM): 0.939
relative viability (NCI-H1915; first compound 0.3162 µM): 0.876
relative viability (NCI-H1915; first compound 1 µM): 0.933
relative viability (NCI-H2085; first compound 0.01 µM): 0.941
relative viability (NCI-H2085; first compound 0.03162 µM): 0.89
relative viability (NCI-H2085; first compound 0.1 µM): 0.879
relative viability (NCI-H2085; first compound 0.3162 µM): 0.841
relative viability (NCI-H2085; first compound 1 µM): 0.889
